Key:
Format in all cases: cell-based
CYP1A2 = experiment: CLZD_CYP1A2: Change in expression of CYP1A2 (primary human hepatocytes); settings: 24 hr
Summary of the method: (§1)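 Cultured primary human hepatocytes treated with chemicals for 6, 24 or 48 hr across five concentrations spanning 0.004-40 µM, then transcript level measured by quantitative nuclease protection in a multiplexed format.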

CYP2B6 = experiment: CLZD_CYP2B6: Change in expression of CYP2B6 (primary human hepatocytes); settings: 24 hr
Summary of the method: as §1

PPARa (PPARA) = biological target: T1, PPARa (PPARA) (Homo sapiens, UniProt Q07869); experiment: NCGC_PPARa_Agonist: GAL4 BLAM Reporter gene assay: PPARa; set-up: expressed in transfected cells; host or cells: HEK293; settings: agonist mode
T1 sequence (Q07869 1-468): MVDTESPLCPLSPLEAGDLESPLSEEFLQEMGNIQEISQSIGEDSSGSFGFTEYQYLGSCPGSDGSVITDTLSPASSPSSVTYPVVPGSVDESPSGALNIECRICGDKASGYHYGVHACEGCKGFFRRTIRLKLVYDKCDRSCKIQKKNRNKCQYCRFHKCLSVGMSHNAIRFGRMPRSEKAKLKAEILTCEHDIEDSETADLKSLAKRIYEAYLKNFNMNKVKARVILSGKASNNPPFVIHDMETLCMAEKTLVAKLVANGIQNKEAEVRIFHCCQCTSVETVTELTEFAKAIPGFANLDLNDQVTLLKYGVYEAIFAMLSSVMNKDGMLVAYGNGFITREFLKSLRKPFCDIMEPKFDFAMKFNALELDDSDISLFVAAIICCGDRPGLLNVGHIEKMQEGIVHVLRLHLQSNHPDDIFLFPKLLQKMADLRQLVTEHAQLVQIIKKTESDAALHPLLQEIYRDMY
Protocol: These assays measure binding constants and enzyme inhibition values for nuclear receptors. The targets include [drawing 67] , [drawing 68] , [drawing 69] , [drawing 70] , [drawing 71] , [drawing 72] , [drawing 73] , [drawing 74] , [drawing 75] and [drawing 76] . Each of the nuclear receptor targets was measured in agonist mode. Assays were run at the NIH Chemical Genomics Center (Rockville, MD).
Cell-based HTS Assays: These assays measuring binding constants and enzyme inhibition values for nuclear receptors. The targets include AR, ER, FXR, LXR, PPARα, PPARδ, PPARγ, RXRα, RXRβ and PXR. Each of the nuclear receptor targets was measured in both agonist and antagonist mode, but the antagonist data is still undergoing analysis due to possible interference between cytotoxicity and assay activity, so antagonist mode data were not used in the present analysis. Assays were run at the NIH Chemical Genomics Center (Rockville, MD) as part of the Tox21 collaboration. […] The R^2 was required to be ≥0.5. Values where only the highest concentration exceeded 50% activity were excluded to eliminate weak or false positives. Detailed description of the methods, data and analysis methods for this dataset will be presented in a separate publication.

[1] = scale not given, looks like -log10 of molar active concentration, 0 = no activity

SMILES | CLZD_CYP1A2_24 (CYP1A2; [1]) | CLZD_CYP2B6_24 (CYP2B6; [1]) | NCGC_PPARa_Agonist (PPARa (PPARA); [1]) | CLZD_CYP2B6_24 (CYP2B6) | CLZD_CYP1A2_24 (CYP1A2) | NCGC_PPARa_Agonist (PPARa (PPARA))
CCSC(=O)N(CC(C)C)CC(C)C [r49] | 0 | 6.583 | 0 | – | – | –
CCc1nn(C)c(C(=O)NCc2ccc(C(C)(C)C)cc2)c1Cl [r291] | – | – | – | 5.278 | – | –
O=C1C2CC=CCC2C(=O)N1SC(Cl)(Cl)Cl (centres unmarked) [r51] | 0 | 0 | 0 | – | – | –
Cc1c(COC(=O)C2C(/C=C(\Cl)C(F)(F)F)C2(C)C)cccc1-c1ccccc1 (centres unmarked) [r39] | 0 | 5.042 | 0 | – | – | –
CCN(CC)C(=O)C(C)Oc1cccc2ccccc12 (centres unmarked) [row 219] | – | – | – | 4.599 | 5.174 | –
CC(C)OC(=O)Nc1cccc(Cl)c1 [r59] | 5.159 | 4.931 | 0 | – | – | –
COc1cc(Cl)c(OC)cc1Cl [r57] | 0 | 5.434 | 0 | – | – | –
CNC(=O)Oc1cccc2ccccc12 [r52] | – | – | 0 | – | – | –
CCc1cccc(C)c1N(C(=O)CCl)C(C)COC (centres unmarked) [row 208] | – | – | – | 5.27 | – | –
CC(C)(c1ccc(O)cc1)c1ccc(O)cc1 [r40] | 0 | 0 | 0 | – | – | –
O=C(Nc1ccccc1-c1ccc(Cl)cc1)c1cccnc1Cl [r42] | 4.876 | 5.164 | 0 | – | – | –
CCCC1COC(Cn2cncn2)(c2ccc(Cl)cc2Cl)O1 (centres unmarked) [r262] | – | – | – | 6.312 | 5.229 | –
CC1=C(C(=O)Nc2ccccc2)SCCO1 [r53] | 4.782 | 4.923 | 0 | – | – | –
COc1cccc(C(=O)NN(C(=O)c2cc(C)cc(C)c2)C(C)(C)C)c1C [row 202] | – | – | – | 5.305 | 4.924 | –
CCCN(CCC)c1c([N+](=O)[O-])cc(C(F)(F)F)c(N)c1[N+](=O)[O-] [r252] | – | – | – | 5.057 | 5.166 | 4.688
CC(C)=CC1C(C(=O)OCc2coc(Cc3ccccc3)c2)C1(C)C (centres unmarked) [r280] | – | – | – | 5.057 | – | –
Nc1cnn(-c2ccccc2)c(=O)c1Cl [r56] | 4.955 | 0 | 0 | – | – | –
COc1nc(C)nc(NC(=O)NS(=O)(=O)c2ccccc2Cl)n1 [r63] | 0 | 0 | 0 | – | – | –

SMILES | CLZD_CYP1A2_24 (CYP1A2; [1]) | CLZD_CYP2B6_24 (CYP2B6; [1]) | NCGC_PPARa_Agonist (PPARa (PPARA); [1]) | CLZD_CYP2B6_24 (CYP2B6) | CLZD_CYP1A2_24 (CYP1A2) | NCGC_PPARa_Agonist (PPARa (PPARA))
C#CCC1=C(C)[C@H](OC(=O)[C@H]2[C@H](C=C(C)C)C2(C)C)CC1=O [r249] | – | – | – | 5.011 | 5.3 | –
OB(O)O [r41] | – | – | 0 | – | – | –
C=CCOC(=O)C(C)(C)OC(=O)c1cc(-n2c(=O)cc(C(F)(F)F)n(C)c2=O)ccc1Cl [r47] | – | – | 0 | – | – | –
CCCCOCN(C(=O)CCl)c1c(CC)cccc1CC [r46] | 0 | 5.29 | 0 | – | – | –
CCc1ccc(C(=O)NN(C(=O)c2cc(C)cc(C)c2)C(C)(C)C)cc1 [r290] | – | – | – | 5.246 | 4.896 | –
CC(C)N1C(=O)c2ccccc2NS1(=O)=O [r37] | 0 | 0 | 0 | – | – | –
COc1nc(C)nc(NC(=O)NS(=O)(=O)c2ccccc2Cl)n1 [r62] | 0 | 0 | 0 | – | – | –
COC(=O)c1ccccc1CS(=O)(=O)NC(=O)Nc1nc(OC)cc(OC)n1 [r33] | 0 | 0 | 0 | – | – | –
CC(C)Oc1cc(-n2nc(C(C)(C)C)oc2=O)c(Cl)cc1Cl [row 225] | – | – | – | 6.222 | 5.223 | –
CSc1nc(NC(C)C)nc(NC(C)C)n1 [r256] | – | – | – | 5.237 | 5.251 | –
CCC(C)n1c(=O)[nH]c(C)c(Br)c1=O (centres unmarked) [r43] | 4.966 | 4.936 | 0 | – | – | –
COc1ccc(-c2ccccc2)cc1NNC(=O)OC(C)C [r38] | 5.768 | 5.354 | 0 | – | – | –
CC(C)N1C(=O)N(c2ccccc2)CS/C1=N\C(C)(C)C [r45] | 0 | 5.247 | 0 | – | – | –
Cc1ccccc1CO[C@@H]1C[C@@]2(C(C)C)CC[C@]1(C)O2 [r64] | 5.157 | 0 | 0 | – | – | –
CCC(C)Nc1c([N+](=O)[O-])cc(C(C)(C)C)cc1[N+](=O)[O-] (centres unmarked) [r48] | 0 | 5.323 | 0 | – | – | –
CCOC(=O)C(Cl)Cc1cc(-n2nc(C)n(C(F)F)c2=O)c(F)cc1Cl (centres unmarked) [r54] | 0 | 5.057 | 0 | – | – | –
N#Cc1cc(Br)c(O)c(Br)c1 [r44] | 0 | 0 | 4.173 | – | – | –
N#Cc1c(Cl)c(Cl)c(Cl)c(C#N)c1Cl [r58] | 0 | 0 | 0 | – | – | –
